Experimental data taken from ChEMBL document CHEMBL4400534, “Pharmacophore-based design of novel 3-hydroxypyrimidine-2,4-dione subtypes as inhibitors of HIV reverse transcriptase-associated RNase H: Tolerance of a nonflexible linker” (Eur J Med Chem, 2019).

Columns and labels:
[1] = biological target: Human immunodeficiency virus type 1 integrase (Human immunodeficiency virus 1, UniProt Q7ZJM1); test: Inhibition of HIV1 integrase strand transfer activity using 5'-biotinylated oligonucleotide as substrate preincubated for 10 mins followed by substrate addition and measured after 30 mins
Chain of Human immunodeficiency virus type 1 integrase (Q7ZJM1 whole entry): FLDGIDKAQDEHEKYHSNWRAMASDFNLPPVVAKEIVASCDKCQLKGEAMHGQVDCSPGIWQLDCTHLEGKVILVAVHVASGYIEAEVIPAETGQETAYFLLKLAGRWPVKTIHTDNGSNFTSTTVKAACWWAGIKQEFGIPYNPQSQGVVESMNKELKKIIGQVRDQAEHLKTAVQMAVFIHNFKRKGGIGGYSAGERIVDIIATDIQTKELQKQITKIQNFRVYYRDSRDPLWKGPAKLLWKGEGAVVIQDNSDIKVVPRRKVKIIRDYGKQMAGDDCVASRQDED

[2] = biological target: T1, Human immunodeficiency virus type 1 reverse transcriptase (Human immunodeficiency virus 1, UniProt Q72547); test: Inhibition of HIV1 reverse transcriptase RNase H expressed in Escherichia coli JM109 using RNA/DNA duplex substrate HTS-1
[3] = Cytotoxicity against human P4R5 cells after 72 hrs by XTT assay; format: cell-based
[4] = biological target: T1, Human immunodeficiency virus type 1 reverse transcriptase; test: Inhibition of HIV1 reverse transcriptase polymerase using deoxynucleotide triphosphates and 18 nucleotide DNA primer annealed to 100 nucleotide DNA template after 30 mins
[5] = system: Human immunodeficiency virus 1; test: Antiviral activity against HIV-1 infected in human P4R5 cells assessed as reduction in viral replication preincubated for 24 hrs followed by viral infection and measured after 48 hrs by MAGI assay; format: functional, organism-based

Structure (SMILES) | IC50 [1] | IC50 [2] | CC50 [3] | IC50 [4] | EC50 [5]
O=C(c1ccc(-c2ccc(F)cc2)cc1)c1cc(=O)n(O)c(=O)[nH]1 | 6.7 µM | 0.027 µM | > 100 µM | > 10 µM | 9 µM
Cc1cc(C)cc(-c2ccc(C(=O)c3cc(=O)n(O)c(=O)[nH]3)cc2)c1 | 3.5 µM | 0.063 µM | > 100 µM | > 10 µM | > 20 µM
COC(=O)c1ccc(-c2ccc(C(=O)c3cc(=O)n(O)c(=O)[nH]3)cc2)cc1 | 6.7 µM | 0.015 µM | > 100 µM | > 10 µM | > 20 µM
O=C(c1cccc(-c2ccccc2)c1)c1cc(=O)n(O)c(=O)[nH]1 | 7.1 µM | 0.017 µM | > 100 µM | > 10 µM | > 20 µM
O=C(c1ccc(-c2ccccc2)cc1)c1cc(=O)n(O)c(=O)[nH]1 | 2.5 µM | 0.022 µM | > 100 µM | > 10 µM | 15 µM
Cc1ccc(-c2ccc(C(=O)c3cc(=O)n(O)c(=O)[nH]3)cc2)cc1 | 10 µM | 0.021 µM | 22 µM | > 10 µM | 4.7 µM
COC(=O)c1ccc(C(=O)c2cc(=O)n(O)c(=O)[nH]2)cc1 | 13 µM | 0.031 µM | > 100 µM | > 10 µM | > 20 µM
CCOCn1c(C(C#N)c2ccc(-c3ccccc3)cc2)cc(=O)n(O)c1=O (stereo not given) | > 100 µM | 0.76 µM | > 100 µM | > 10 µM | > 20 µM
Cc1cc(C)cc(C(=O)c2cc(=O)n(O)c(=O)[nH]2)c1 | 4.9 µM | 0.09 µM | 21 µM | > 10 µM | 9.5 µM
O=C(c1ccc(F)cc1)c1cc(=O)n(O)c(=O)[nH]1 | 4 µM | 0.085 µM | > 100 µM | > 10 µM | > 20 µM
CCOCn1c(C(C#N)c2cc(C)cc(C)c2)cc(=O)n(O)c1=O (stereo not given) | > 100 µM | 3.7 µM | > 100 µM | > 10 µM | > 20 µM
Cc1cc(-c2ccc(C(=O)c3cc(=O)n(O)c(=O)[nH]3)cc2)ccc1F | 4.3 µM | 0.019 µM | > 100 µM | 8.3 µM | > 20 µM
N#Cc1ccc(-c2ccc(C(=O)c3cc(=O)n(O)c(=O)[nH]3)cc2)cc1 | 0.53 µM | 0.024 µM | > 100 µM | 7.7 µM | > 20 µM
O=C(c1ccc(C(F)(F)F)cc1)c1cc(=O)n(O)c(=O)[nH]1 | 2.1 µM | 0.081 µM | > 100 µM | > 10 µM | > 20 µM
CCOCn1c(C(=O)c2cccc(-c3ccccc3)c2)cc(=O)n(O)c1=O | > 100 µM | 1.1 µM | 73 µM | > 10 µM | 12 µM
O=C(c1ccc(-c2ccc(Cl)c(F)c2)cc1)c1cc(=O)n(O)c(=O)[nH]1 | 0.37 µM | 0.023 µM | > 100 µM | > 10 µM | 18 µM
O=C(c1ccc(-c2ccc(C(F)(F)F)cc2)cc1)c1cc(=O)n(O)c(=O)[nH]1 | > 100 µM | 0.026 µM | 17 µM | > 10 µM | 5.3 µM
COc1ccc(-c2ccc(C(=O)c3cc(=O)n(O)c(=O)[nH]3)cc2)cc1 | > 100 µM | 0.53 µM | > 100 µM | 5.9 µM | > 20 µM
COc1ccc(-c2ccc(C(=O)c3cc(=O)n(O)c(=O)[nH]3)cc2)cc1OC | 0.33 µM | 0.074 µM | 8.4 µM | 9.6 µM | 6.7 µM
CCOCn1c(C(=O)c2ccc(-c3ccccc3)cc2)cc(=O)n(O)c1=O | > 100 µM | 0.42 µM | > 100 µM | > 10 µM | > 20 µM
Cc1ccc(C(=O)c2cc(=O)n(O)c(=O)[nH]2)cc1 | 7.2 µM | 0.093 µM | 48 µM | > 10 µM | > 20 µM
